# Experimental data published in patent publication US20250136576A1, “Heterocyclic Compounds and Uses Thereof” (ACEA Therapeutics, Inc., priority 2021, published 2025).
# Test system: KM12-luc cells
# Test: Cell proliferation and growth inhibition assay (CCK-8) in KM12-luc
# Assay type: cell-based
# Details: KM12-Luc, 72 h, KM12-luc cells, treated with test compounds for 72 hrs, CCK-8 viability; read-out: NTRK IC50 in KM12-luc
# Summary of the method: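 IC50 values were fitted by sigmoidal dose-response non-linear regression of CCK-8 OD450 absorbance after 1-4 hrs with reagent. Culture media were IMDM for MV-4-11, RPMI 1640 for H1975 and DMEM for KM12-luc, each with 10% FBS at 37 °C, 5% CO2.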
row,SMILES,IC50 [µM]
1,"CC(=O)Nc1cc(Nc2ncc(Cl)c(-c3c[nH]c4ccccc34)n2)cc(F)c1N(C)CCN(C)C [Compound 441, N-(5-((5-chloro-4-(1H-indol-3-yl)pyrimidin-2-yl)amino)-2-((2-(dimethylamino)ethyl)(methyl)amino)-3-fluorophenyl)acetamide]",0.0249
2,"CCN(CCN(C)C)c1c(F)cc(Nc2ncc(Cl)c(-c3c[nH]c4ccccc34)n2)cc1NC(C)=O [Compound 443, N-(5-((5-chloro-4-(1H-indol-3-yl)pyrimidin-2-yl)amino)-2-((2-(dimethylamino)ethyl) (ethyl)amino)-3-fluorophenyl)acetamide]",0.0333
3,"CC(=O)Nc1cc(Nc2ncc(C(F)(F)F)c(-c3cn(C)c4cccc(F)c34)n2)ccc1N(C)CCN(C)C [Compound 320, N-(2-((2-(dimethylamino)ethyl)(methyl)amino)-5-((4-(4-fluoro-1-methyl-1H-indol-3-yl)-5-(trifluoromethyl)pyrimidin-2-yl)amino)phenyl)acetamide]",0.0911
4,"CCN(CCN(C)C)c1c(F)cc(Nc2nc(-c3cn(C)c4ccccc34)c3ccn(C)c3n2)cc1NC(C)=O [Compound 195b, N-(2-((2-(dimethylamino)ethyl)(ethyl)amino)-3-fluoro-5-((7-methyl-4-(1-methyl-1H-indol-3-yl)-7H-pyrrolo[2,3-d]pyrimidin-2-yl)amino)phenyl)acetamide]",0.561
5,"CCN(CCN(C)C)c1c(F)cc(Nc2nc(OC)c(OC)c(-c3cn(C)c4ccccc34)n2)cc1NC(C)=O [Compound 291d, N-(5-((4,5-dimethoxy-6-(1-methyl-1H-indol-3-yl)pyrimidin-2-yl)amino)-2-((2-(dimethylamino)ethyl) (ethyl)amino)-3-fluorophenyl)acetamide]",3.27
6,"CN(C)CCN(C)c1ccc(C(=O)Nc2c[nH]c3cnc(Nc4cc(F)cc(F)c4)nc23)c(NC2CCOCC2)c1 [Compound 493, N-(2-((3,5-difluorophenyl)amino)-5H-pyrrolo[3,2-d]pyrimidin-7-yl)-4-((2-(dimethylamino)ethyl)(methyl)amino)-2-((tetrahydro-2H-pyran-4-yl)amino)benzamide]",> 10
7,"Cc1cccc2c(-c3nc(Nc4ccc(N5CC[C@H](N(C)C)C5)c(N)c4)ncc3C(F)(F)F)c[nH]c12 [Compound S-367, (S)-4-(3-(dimethylamino)pyrrolidin-1-yl)-N^1-(4-(7-methyl-1H-indol-3-yl)-5-(trifluoromethyl)pyrimidin-2-yl)benzene-1,3-diamine]",0.0046
8,"C=CC(=O)Nc1cc(Nc2nc(-c3cn(C)c4ccccc34)c3cc[nH]c3n2)ccc1N(CC)CCN(C)C [Compound 212a, N-(2-((2-(dimethylamino)ethyl)(ethyl)amino)-5-((4-(1-methyl-1H-indol-3-yl)-7H-pyrrolo[2,3-d]pyrimidin-2-yl)amino)phenyl)acrylamide]",0.0627
9,"CC(=O)Nc1cc(Nc2ncc(C(F)(F)F)c(-c3cn(C)c4cc(F)c(F)cc34)n2)ccc1N(C)CCN(C)C [Compound 355, N-(5-((4-(5,6-difluoro-1-methyl-1H-indol-3-yl)-5-(trifluoromethyl)pyrimidin-2-yl)amino)-2-((2-(dimethylamino)ethyl)(methyl)amino)phenyl)acetamide]",0.0704
10,"CCN(CCN(C)C)c1ccc(Nc2ncc(C(F)(F)F)c(-c3c[nH]c4ccccc34)n2)cc1N [Compound 301, N^4-(4-(1H-indol-3-yl)-5-(trifluoromethyl)pyrimidin-2-yl)-N^1-(2-(dimethylamino)ethyl)-N-ethylbenzene-1,2,4-triamine]",0.0754
11,"CN(C)CCN(C)c1ccc(Nc2nc(Oc3cccc(N)c3)c3cc[nH]c3n2)cc1 [Compound 184, N^1-(4-(3-aminophenoxy)-7H-pyrrolo[2,3-d]pyrimidin-2-yl)-N^4-(2-(dimethylamino)ethyl)-N^4-methylbenzene-1,4-diamine]",0.407
12,"CN(C)CCN(C)c1ccc(Nc2ncc(C(F)(F)F)c(-c3c[nH]c4cc(F)ccc34)n2)cc1N [Compound 329, N^1-(2-(dimethylamino)ethyl)-N^4-(4-(6-fluoro-1H-indol-3-yl)-5-(trifluoromethyl)pyrimidin-2-yl)-N^1-methylbenzene-1,2,4-triamine]",0.0721
13,"Cc1nc2cc(Nc3ncc(C(F)(F)F)c(-c4c[nH]c5c(F)cccc45)n3)ccc2n1CCN(C)C [Compound 342, 1-(2-(dimethylamino)ethyl)-N-(4-(7-fluoro-1H-indol-3-yl)-5-(trifluoromethyl)pyrimidin-2-yl)-2-methyl-1H-benzo[d]imidazol-5-amine]",0.0246
14,"CC(=O)Nc1cc(Nc2ncc(Cl)c(-c3c[nH]c4ccccc34)n2)ccc1NC(=O)CCN(C)C [Compound 394a, N-(2-acetamido-4-((5-chloro-4-(1H-indol-3-yl)pyrimidin-2-yl)amino)phenyl)-3-(dimethylamino)propanamide]",0.0291
15,"CC(=O)Nc1cc(Nc2nc(-c3cn(C)c4ccccc34)c3cc[nH]c3n2)cc(F)c1N(C)CCN(C)C [Compound 190, N-(2-((2-(dimethylamino)ethyl)(methyl)amino)-3-fluoro-5-((4-(1-methyl-1H-indol-3-yl)-7H-pyrrolo[2,3-d]pyrimidin-2-yl)amino)phenyl)acetamide]",0.0604
16,"CCN(CCN(C)C)c1ccc(Nc2nc(-c3cn(C)c4ccccc34)c3cc[nH]c3n2)cc1NC(=O)C(C)C [Compound 212d, N-(2-((2-(dimethylamino)ethyl)(ethyl)amino)-5-((4-(1-methyl-1H-indol-3-yl)-7H-pyrrolo[2,3-d]pyrimidin-2-yl)amino)phenyl)isobutyramide]",0.0931
17,"CN(C)[C@H]1CCN(c2ccc(Nc3ncc(C(F)(F)F)c(-c4c[nH]c5c(F)cccc45)n3)cc2N)C1 [Compound S-345, (S)-4-(3-(dimethylamino)pyrrolidin-1-yl)-N^1-(4-(7-fluoro-1H-indol-3-yl)-5-(trifluoromethyl)pyrimidin-2-yl)benzene-1,3-diamine]",0.0082

# Same assay, conditions: KM12-Luc, 72 h, read-out: NTRK IC50 in KM12-luc
row,SMILES,IC50 [µM]
1,"CC(=O)Nc1cc(Nc2nc(-c3cn(C)c4ccc(F)cc34)c3cc[nH]c3n2)ccc1N(C)CCN(C)C [Compound 227a, N-(2-((2-(dimethylamino)ethyl)(methyl)amino)-5-((4-(5-fluoro-1-methyl-1H-indol-3-yl)-7H-pyrrolo[2,3-d]pyrimidin-2-yl)amino)phenyl)acetamide]",0.578

# Same assay, conditions: KM12-luc cells, treated with test compounds for 72 hrs, CCK-8 viability; read-out: NTRK IC50 in KM12-luc
row,SMILES,IC50 [µM]
1,"CC(=O)Nc1cc(Nc2nc(-c3cn(C)nc3C)c3cc[nH]c3n2)ccc1N(C)CCN(C)C [Compound 255a, N-(5-(4-(1,3-dimethyl-1H-pyrazol-4-yl)-7H-pyrrolo[2,3-d]pyrimidin-2-ylamino)-2-((2-(dimethylamino)ethyl)(methyl)amino)phenyl)acetamide]",0.246

# Test system: H1975 cells
# Test: Cell proliferation and growth inhibition assay (CCK-8) in H1975
# Assay type: cell-based
# Details: Homo sapiens, NCI-H1975, 72 h, treated with test compounds for 72 hrs, CCK-8 viability, read-out: EGFR IC50 in H1975
# Protocol: MV-4-11 and H1975 cells were obtained from the American Type Culture Collection and KM12-luc cells were obtained from JCRB Cell Bank. All cell lines were maintained at 37° C. with 5% C02, in media supplemented with 10% fetal bovine serum and penicillin (100 units/mL) and streptomycin (100 μg/mL). MV-4-11 cells were maintained in Iscove's Modified Dubecco's Medium, H1975 cells were cultured with RPMI 1640 media, and KM12-luc cells were maintained in Dulbecco's Modification of Eagle's Medium. CCK-8 reagent was obtained from Yeasen.
# Cell proliferation was assessed by CCK-8 assay (Yeasen) per the manufacturer's instructions. The MV-4-11 (AML), H1975, and KM12-luc cells were seeded at 30,000, 3,000 and 2,500 cells per well onto 96-well plates, and after a 24 h incubation, the cells were treated with test compounds for 72 hrs. Cell viability was assayed by incubating the cells with CCK-8 reagent for 1-4 hrs. Absorbance was measured at OD450 using the Beckman DTX880. The data was calculated using GraphPad Prism version 6.01. The IC50 values were fitted using a non-linear regression model with a sigmoidal dose response.
row,IC50 [µM],SMILES
1,1.51,"CCC(=O)Nc1cc(Nc2nccc(-c3c[nH]c4c(C)cccc34)n2)ccc1N(C)CCN(C)C [Compound 550, N-(2-((2-(dimethylamino)ethyl)(methyl)amino)-5-((4-(7-methyl-1H-indol-3-yl)pyrimidin-2-yl)amino)phenyl)propionamide]"
2,0.425,"Cc1cccc2c(-c3nc(Nc4ccc(N(C)CCN(C)C)c(N)c4)ncc3F)c[nH]c12 [Compound 524, N^1-(2-(dimethylamino)ethyl)-N^4-(5-fluoro-4-(7-methyl-1H-indol-3-yl)pyrimidin-2-yl)-N^1-methylbenzene-1,2,4-triamine]"
3,0.656,"CCC(=O)Nc1cc(Nc2ncc(F)c(-c3c[nH]c4c(C)cccc34)n2)ccc1N(C)CCN(C)C [Compound 526, N-(2-((2-(dimethylamino)ethyl)(methyl)amino)-5-((5-fluoro-4-(7-methyl-1H-indol-3-yl)pyrimidin-2-yl)amino)phenyl)propionamide]"
4,1.02,"CC(=O)Nc1cc(Nc2nccc(-c3c[nH]c4c(F)cccc34)n2)ccc1N(C)CCN(C)C [Compound 546, N-(2-((2-(dimethylamino)ethyl)(methyl)amino)-5-((4-(7-fluoro-1H-indol-3-yl)pyrimidin-2-yl)amino)phenyl)acetamide]"
5,0.406,"CC(=O)Nc1cc(Nc2ncc(F)c(-c3c[nH]c4c(C)cccc34)n2)ccc1N(C)CCN(C)C [Compound 525, N-(2-((2-(dimethylamino)ethyl)(methyl)amino)-5-((5-fluoro-4-(7-methyl-1H-indol-3-yl)pyrimidin-2-yl)amino)phenyl)acetamide]"
6,0.791,"COc1cnc(Nc2ccc(N(C)CCN(C)C)c(N)c2)nc1-c1c[nH]c2c(C)cccc12 [Compound 532, N^1-(2-(dimethylamino)ethyl)-N^1-methyl-N^4-(5-methoxy-4-(7-methyl-1H-indol-3-yl)pyrimidin-2-yl)benzene-1,2,4-triamine]"
7,1.3,"CCC(=O)Nc1cc(Nc2ncc(OC)c(-c3c[nH]c4c(C)cccc34)n2)ccc1N(C)CCN(C)C [Compound 534, N-(2-((2-(dimethylamino)ethyl)(methyl)amino)-5-((5-methoxy-4-(7-methyl-1H-indol-3-yl)pyrimidin-2-yl)amino)phenyl)propionamide]"
